Source: patent publication US20220259536A1, “MICROCHANNEL CELL CULTURE DEVICE AND SYSTEM” (THE CHARLES STARK DRAPER LABORATORY, INC., priority 2021, published 2022)

System: Human renal proximal tubule cells
Test: optical label-free measurement of cell oxygen consumption in multi-well microfluidic tissue culture device
Type: cell-based
Settings: human renal proximal tubule cells treated with Oligomycin; static conditions after turning off pumps; FIG. 15B, varying drug concentrations
Source text: An optical luminescence-based oxygen sensing system was integrated with an existing multi-well microfluidic tissue culture device, for label-free oxygen monitoring (FIG. 13). Sensor spots having a diameter of 0.75 mm were cut with a biopsy punch from a sheet of photosensitive film (PyroScience) and bonded with 184 Sylgard silicone adhesive to the center floor of each basal channel. The photosensitive sensor spot was located about 200 μm from the tissue layer on the surface of bottom channel. A FireStingO2 optical oxygen meter (PyroScience) with a 2 m fiber optic cable (external to channel) was used to monitor oxygen in each device. For oxygen measurements, the device was placed in an incubated confocal microscope (Zeiss Inc., Oberkochen, Germany) and the fiber optic was secured below the microscope stage. The stage was programmed to align the fiber optic with each sensor for oxygen monitoring in all 96 tissue modeling environments. A 2-point calibration of the FireStingO2 system was performed using devices filled with air saturated PBS and a 0% oxygen solution (30 g/L sodium sulfite in water). […] Tissue oxygen consumption was measured for the human renal proximal tubule cells by cycling the pumps carrying oxygen rich fluid on and off (FIG. 14). As shown in the graph of FIG. 14, under static conditions, cell oxygen consumption was measured immediately upon turning off fluid pumps.

CC[C@H]1/C=C/C=C/C[C@@H](C)[C@H](O)[C@@](C)(O)C(=O)[C@@H](C)[C@H](O)[C@@H](C)C(=O)[C@@H](C)[C@H](O)[C@@H](C)/C=C/C(=O)O[C@@H]2[C@H](C)[C@H](CC1)O[C@]1(CC[C@H](C)[C@H](C[C@@H](C)O)O1)[C@H]2C [Oligomycin]
cell oxygen consumption rate: significant decrease
